Like-named read-outs stand apart in the source and are kept apart here.
Columns and labels:
L. donovani = experiment: In vitro antiparasitic assay against L. donovani amastigotes (PicoGreen); type: cell-based; conditions: Leishmania donovani, I = inactive at 10 µg/mL
Protocol: Promastigotes cultures of L. donovani are maintained in continuous log phase growth in Liver Infusion Tryptose (LIT) Medium, pH 7.2, supplemented with 10 % Fetal Bovine Serum (FBS) at 28 °C. For promastigote transformation into amastigote forms, 1 mL of promastigotes log phase culture is transferred into 5 mL of Medium 199 Modified (SIGMA-Cat M3769) pH 5.5, supplemented with 0.1 g/L L-glutamine, 2.2 g/L sodium bicarbonate, 2 g Glucose, 5 mL penicillin–streptomycin and 20 % FBS and maintained at 35 °C until its use for bioassays.
(§1) Dry samples were diluted in 100 % DMSO (dimethylsulfoxide) to obtain a concentration of 4 mg/mL. Samples are used immediately in the bioassay and stored at −20 °C in the dark until results are obtained. All assays are performed in sterile 96-well microtitre culture plates (Costar Cat 3595). In a primary screening samples are tested in duplicate wells at a final concentration of 10 μg/mL. […] The IC50 is analyzed with the Excel Add-On software LSW Data Analysis Tool. The concentration that inhibited the growth of the parasites to 50 % (IC50) was calculated through the inhibition curve of the obtained optical density values, and compared to the untreated controls.
(§2) L. donovani and P. falciparum A […] is used to determine the amount of parasites in culture. After 48 and 72 h incubation, respectively, 1 % PicoGreen® solution is added to all wells in the dark. After shaking, the plate is taken into a microplate reader employing 485/20 nm excitation and 528/20 nm emission filter sets.

P. falciparum [1] = conditions: read-out: IC50 of positive control for P. falciparum; positive control range; cited from earlier work
[2] = target: α-glucosidase from baker's yeast; experiment: α-Glucosidase inhibitory assay (PNP-G substrate) and kinetic analysis; type: biochemical, S. cerevisiae
Protocol: Lineweaver–Burk plots were constructed using different concentrations of substrate and triterpenes 1–5.
The α-glucosidase inhibitory assay was performed according to Chan and collaborators (2010), with modifications. α-glucosidase from baker’s yeast purchased from Sigma Chemical Co. The inhibition was measured spectrophotometrically at pH 7.0 and 37 °C employing 2 mM p-nitrophenyl α-D-glucopyranoside (PNP-G) as a substrate and 32 mU/mL of enzyme, in 100 mM potassium phosphate buffer (enzyme stock). […] The absorbance (A) of 4-nitrophenol released by the hydrolysis of PNP-G was measured at 400 nm by Synergy HT Bio Tek microplate spectrophotometer. […] After incubating, 150µL of substrate was added and further incubated for 20 min at 37 °C. All assays are performed in 96-well microplates (Greiner bio-one 655101) in duplicate. The activity of samples was calculated as a percentage in comparison to a control (DMSO or MeOH instead of sample solution) according with the following equation:
%Inhibition=(ΔAcontrol-ΔAsample)/ΔAcontrol×100%
The concentration required to inhibit activity of the enzyme by 50 % (IC50) was calculated by regression analysis.

T. cruzi [3] = experiment: In vitro T. cruzi growth inhibition, Tulahuen clone C4 expressing β-galactosidase, in Vero cells; type: cell-based; conditions: Trypanosoma cruzi, strain Tulahuen, I = inactive at 10 µg/mL, read-out: Antiparasitic activity IC50, T. cruzi
Protocol: T. cruzi (Tulahuen) C4 strain lactosidase (Lac Z) gene. The strain is maintained on VERO Cells (African Green Monkey cell line obtained from ATCC on 2006), grown in monolayers in RPM-I1640 medium, supplemented with 10 % heat inactivated FBS. All cultures and assays are conducted at 37 °C under an atmosphere of 5 % CO2/95 % air mixture.
as §1
T. cruzi In this assay, a colorimetric method is used to determine the inhibition of parasite growth as detected by reduction of β-galactosidase (β-Gal) as a reporter gene, expressed by the Tulahuen clone C4 of T. cruzi. Assays are performed on […], the intracellular form of the parasite infecting African green monkey kidney (VERO) cells, exposed during 120 h to different concentrations (50, 10 and 2 µg/mL) of the test substance. The resulting colour from the cleavage of chlorophenol red-β-D-galactoside (CPRG) by β-Gal expressed by the parasite, was measured using a Benchmark Bio-Rad microplate reader at 570 nm.

[4] = Cytotoxicity bioassay (MTT); type: cell-based; conditions: African green monkey, five days, I = inactive at 10 µg/mL
Protocol: Vero cells were seeded in 96-well plates in RPM-I1640 medium supplemented with 10 % FBS and 1 % penicillin/streptomycin. The cells were allowed to grow for 24 h before adding the test compounds, dissolved in DMSO, to final concentrations of 10, 4, 0.2 and 0.08 µg/mL. A sample with only a volume of DMSO similar to the added volume in the compounds samples was placed as a negative control in all plates. All samples were incubated for five days before staining and examining for reduction of 3-(4,5-dimethylthiazol-2-yl)-2,5-diphenyltetrazolium bromide (MTT) and analyzed 4 h later in a color plate reader at 570 nm.

P. falciparum [5] = experiment: In vitro antiplasmodial assay, chloroquine-resistant strain Indochina W2 (PicoGreen); type: cell-based; conditions: Plasmodium falciparum, I = inactive at 10 µg/mL, read-out: Antiparasitic activity IC50, P. falciparum
Protocol: The cultures are kept in synchrony by thermal cycling incubation and are maintained in continuous log phase growth in RPM-I1640 medium (SIGMA) supplemented with 2 % washed human O Rh positive (+) erythrocytes, 25 mM HEPES, […] NaHCO3, and 10 % Human Serum from an O Rh+ donor. All cultures and assays are conducted at 37 °C under an atmosphere of 5 % CO2 and 5 % O2, with a balance of N2 (90 %).
as §1, §2

T. cruzi [6] = conditions: read-out: IC50 of positive control for T. cruzi; positive control range; cited from earlier work
[7] = pH 7.0, 37 °C, 2 mM PNP-G, read-out: α-glucosidase inhibition IC50
[8] = α-glucosidase IC50 in Table 2, read-out: IC50
[9] = read-out: IC50, Vero cells (cytotoxicity)

Row | Structure (SMILES) | IC50 (L. donovani) | IC50 (P. falciparum [1]) | IC50 [2, 7] | IC50 [2, 8] | IC50 (T. cruzi [3]) | IC50 at 5 days ([4]; Vero cells) | IC50 (P. falciparum [5]) | IC50 at 5 days [4, 9] | α-glucosidase inhibition IC50 ([2]; pH 7.0, 37 °C, 2 mM PNP-G) | melting point | IC50 (T. cruzi [6]) | type of α-glucosidase inhibition (Lineweaver–Burk plots) ([2]; different concentrations of substrate and inhibitor)
1 | C[C@@H]1[C@H](O)[C@@H](C)/C=C/C=C/C=C/C=C/C=C/C=C/C=C/[C@H](O[C@@H]2O[C@H](C)[C@@H](O)[C@H](N)[C@@H]2O)C[C@@H]2O[C@](O)(C[C@@H](O)C[C@@H](O)[C@H](O)CC[C@@H](O)C[C@@H](O)CC(=O)O[C@H]1C)C[C@H](O)[C@H]2C(=O)O [Anfotericine B, Amphotericin B, reference compound] | 1 ± 0.12 µM |  |  |  |  |  |  |  |  |  |  | 
2 | CCN(CC)CCCC(C)Nc1ccnc2cc(Cl)ccc12 (centres unmarked) [Chloroquine] |  | 0.08 to 0.1 µM |  |  |  |  |  |  |  |  |  | 
3 | C[C@H]1[C@H](C)CC[C@]2(C)CC[C@]3(C)C(=CC[C@@H]4[C@@]5(C)CC[C@H](O)C(C)(C)[C@@H]5CC[C@]43C)[C@H]12 [Compound 1, α-amyrine] | > 10 µg/mL |  | 1.45 µM | 1.45 µM | 19 ± 0.6 µM | > 10 µg/mL | > 10 µg/mL |  |  |  |  | 
4 | CC1(C)CC[C@]2(C)CC[C@]3(C)C(=CC[C@@H]4[C@@]5(C)CC[C@H](O)C(C)(C)[C@@H]5CC[C@]43C)[C@@H]2C1 [Compound 2, β-amyrine] | > 10 µg/mL |  | 0.02 µM | 0.02 µM | > 10 µg/mL |  | > 10 µg/mL | > 10 µg/mL |  |  |  | 
5 | C[C@H]1[C@H](C)CC[C@]2(C(=O)O)CC[C@]3(C)C(=CC[C@@H]4[C@@]5(C)CC[C@H](O)C(C)(C)[C@@H]5CC[C@]43C)[C@H]12 [Compound 3, ursolic acid] | 2.4 ± 0.1 µM |  | 1.08 µM | 1.08 µM | > 10 µg/mL | 64.8 ± 0.3 µM | 21.9 ± 0.6 µM |  |  |  |  | 
6 | CC1(C)CC[C@]2(C(=O)O)CC[C@]3(C)C(=CC[C@@H]4[C@@]5(C)CC[C@H](O)C(C)(C)[C@@H]5CC[C@]43C)[C@@H]2C1 [Compound 4, oleanolic acid] | 5.3 ± 0.2 µM |  | 0.98 µM | 0.98 µM | > 10 µg/mL | 140.8 ± 0.5 µM | > 10 µg/mL |  |  |  |  | 
7 | C=C(C)[C@@H]1CC[C@]2(C(=O)O)CC[C@]3(C)[C@H](CC[C@@H]4[C@@]5(C)CC[C@H](O)C(C)(C)[C@@H]5CC[C@]43C)[C@@H]12 [Compound 5, betulinic acid] | > 10 µg/mL |  | 2.37 µM | 2.37 µM | > 10 µg/mL |  | 18 ± 0.4 µM | 131.1 ± 0.3 µM |  |  |  | 
8 | [O-][S@+]1C[C@H](O)CS1 [Compound 6, brugierol] | > 10 µg/mL |  |  |  | > 10 µg/mL | > 10 µg/mL | > 10 µg/mL |  | inactive |  |  | 
9 | [O-][S@@+]1C[C@H](O)CS1 [Compound 7, iso-brugierol] | > 10 µg/mL |  |  |  | > 10 µg/mL | > 10 µg/mL | > 10 µg/mL |  | inactive | 82 to 83 °C |  | 
10 | O=c1c(O)c(-c2ccc(O)cc2)oc2cc(O)cc(O)c12 [Compound 8, kaempferol] | 22.9 ± 0.2 µM |  | 262 µM |  | > 10 µg/mL | 154.9 ± 0.6 µM | > 10 µg/mL |  |  |  |  | 
11 | O=c1c(O)c(-c2ccc(O)c(O)c2)oc2cc(O)cc(O)c12 [Compound 9, quercetin] | 12.6 ± 0.2 µM |  | 29.8 µM |  | 13 ± 0.4 µM | > 10 µg/mL | 9.7 ± 0.3 µM |  |  |  |  | 
12 | CC1CS(=O)(=O)CCN1/N=C/c1ccc([N+](=O)[O-])o1 (centres unmarked) [Nifurtimox, reference compound] |  |  |  |  | 1.6 ± 0.11 µM |  |  |  |  |  | 0.15 to 13.4 µM | 
13 | C[C@H]1O[C@H](O[C@H]2[C@H](O)[C@@H](O)[C@@H](O[C@H]3[C@H](O)[C@@H](O)C(O)O[C@@H]3CO)O[C@@H]2CO)[C@H](O)[C@@H](O)[C@@H]1N[C@H]1C=C(CO)[C@@H](O)[C@H](O)[C@H]1O (some centres unmarked) [acarbose, reference compound] |  |  |  |  |  |  |  |  |  |  |  | competitive inhibitor

— PMC4586009, “Phytochemical composition, antiparasitic and α–glucosidase inhibition activities from Pelliciera rhizophorae” (Chemistry Central Journal, 2015)
